Reference: patent publication US8377948B2, “Antitumor agents and methods of their use” (The Ohio State University Research Foundation, priority 2004, dated 2013)

Tested on: PC-3 cells
Assay: MTT cell viability assay, PC-3 cells in 10% FBS medium
Format: cell-based, human
Details: Homo sapiens, PC-3, 48 h, RPMI 1640 with 10% FBS, means ± S.D. (n = 6)
Experimental: PC-3 (p53−/−) human androgen-nonresponsive prostate cancer cells were purchased from the American Type Tissue Collection (Manassas, Va.). Cells were cultured in RPMI 1640 medium (Gibco, Grand Island, N.Y.) supplemented with 10% fetal bovine serum (FBS; Gibco) at 37° C. in a humidified incubator containing 5% CO2.
Effect of the test agent on cell viability was assessed by the MTT {[3-(4,5-dimethylthiazol-2-yl)-2,5-diphenyl-2H-tetrazolium bromide]} assay in 96-well, flat-bottomed plates, in which 8,000 PC-3 or DU-145 cells/well were seeded. Cells were exposed to the test agent at the indicated concentrations, in six replicates, in 10% FBS-supplemented-RPMI-1640 medium at 37° C. in 5% CO2 for 48 hr. The medium was removed and replaced by 150 μL of 0.5 mg/mL of MTT in RPMI-1640 medium, and cells were incubated in the CO2 incubator at 37° C. for 2 h. Supernatants were removed from the wells, and the reduced MTT dye was solubilized with 200 μL/well DMSO. Absorbance was determined on a plate reader at 570 nm.
All compounds were evaluated for their ability to induce apoptotic death in human androgen-independent PC-3 prostate cancer in RPMI 1640 medium containing 10% fetal bovine serum (FBS). For representative compounds tested in DU-145 and LNCaP prostate cancer cells, the IC50 values for inhibiting cell proliferation were similar in these three cell lines irrespective of differences in androgen sensitivity, PTEN mutation, the functional status of p53 and Rb, and other biomarkers.

| IC50 [µM] | SMILES |
| --- | --- |
| 3.3 ± 0.3 | COc1cc2nc(N3CCN(S(=O)(=O)c4ccc(-c5ccc(C(F)(F)F)cc5)cc4)CC3)nc(N)c2cc1OC [Compound 37, 6,7-Dimethoxy-2-[4-(4′-trifluoromethyl-biphenyl-4-sulfonyl)-piperazin-1-yl]-quinazolin-4-yl-amine] |
| 7.2 ± 0.5 | COc1cc2nc(N3CCN(S(=O)(=O)c4ccc(-c5ccc(S(C)(=O)=O)cc5)cc4)CC3)nc(N)c2cc1OC [Compound 38, 2-[4-(4′-Methanesulfonyl-biphenyl-4-sulfonyl)-piperazin-1-yl]-6,7-dimethoxy-quinazolin-4-ylamine] |
| 3.4 ± 0.2 | CCCCc1ccc(-c2ccc(S(=O)(=O)N3CCN(c4nc(N)c5cc(OC)c(OC)cc5n4)CC3)cc2)cc1 [Compound 39, 2-[4-(4′-Butyl-biphenyl-4-sulfonyl)-piperazin-1-yl]-6,7-dimethoxy-quinazolin-4-yl-amine] |
| 10 ± 2 | COc1cc2nc(N3CCN(S(=O)(=O)c4ccc(-c5ccc(C(C)(C)C)cc5)cc4)CC3)nc(N)c2cc1OC [Compound 40, 2-[4-(4′-tert-Butyl-biphenyl-4-sulfonyl)-piperazin-1-yl]-6,7-dimethoxy-quinazolin-4-yl-amine] |
| 3.3 ± 0.4 | C=CCOc1cc2nc(N3CCN(S(=O)(=O)c4ccc(-c5ccccc5)cc4)CC3)nc(N)c2cc1OCC=C [Compound 43, 6,7-Bis-allyloxy-2-[4-(biphenyl-4-sulfonyl)-piperazin-1-yl]-quinazolin-4-ylamine] |
| 24 | CC(C)Oc1cc2nc(N3CCN(S(=O)(=O)c4ccc(-c5ccccc5)cc4)CC3)nc(N)c2cc1OC(C)C [Compound 45, 2-[4-(Biphenyl-4-sulfonyl)-piperazin-1-yl]-6,7-diisopropoxy-quinazolin-4-yl-amine] |

| SMILES | IC50 [µM] |
| --- | --- |
| CCCCOc1cc2nc(N3CCN(S(=O)(=O)c4ccc(-c5ccccc5)cc4)CC3)nc(N)c2cc1OCCCC [Compound 46, 2-[4-(Biphenyl-4-sulfonyl)-piperazin-1-yl]-6,7-dibutoxy-quinazolin-4-ylamine] | 3.5 ± 0.4 |
